Reference: PubChem BioAssay (NCI)
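Cultured in 96-well plates, cells were exposed to test compound for 48 hours across five concentrations. At the GI50, growth is halved. TGI: concentration producing complete growth inhibition.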

What was measured:
Experiment in all cases: growth of human tumour cells (NCI), 48 h
786-0 renal = test system: 786-0 renal
A498 renal = test system: A498 renal
A549 NSCLC = test system: A549 NSCLC
ACHN renal = test system: ACHN renal
BT-549 breast = test system: BT-549 breast
CAKI-1 renal = test system: CAKI-1 renal
CCRF-CEM leukemia = test system: CCRF-CEM leukemia
COLO 205 colon = test system: COLO 205 colon
DU-145 prostate = test system: DU-145 prostate
EKVX NSCLC = test system: EKVX NSCLC
HCC-2998 colon = test system: HCC-2998 colon
HCT-116 colon = test system: HCT-116 colon
HCT-15 colon = test system: HCT-15 colon
HL-60(TB) leukemia = test system: HL-60(TB) leukemia
HOP-62 NSCLC = test system: HOP-62 NSCLC
HOP-92 NSCLC = test system: HOP-92 NSCLC
HS 578T breast = test system: HS 578T breast
HT29 colon = test system: HT29 colon
IGROV1 ovarian = test system: IGROV1 ovarian
K-562 leukemia = test system: K-562 leukemia
KM12 colon = test system: KM12 colon
LOX IMVI melanoma = test system: LOX IMVI melanoma
M14 melanoma = test system: M14 melanoma
MALME-3M melanoma = test system: MALME-3M melanoma
MDA-MB-231 breast = test system: MDA-MB-231 breast
MDA-MB-435 = test system: MDA-MB-435
MOLT-4 leukemia = test system: MOLT-4 leukemia
NCI-H226 lung = test system: NCI-H226 lung
NCI-H23 lung = test system: NCI-H23 lung
NCI/ADR-RES ovarian = test system: NCI/ADR-RES ovarian
OVCAR-3 ovarian = test system: OVCAR-3 ovarian
OVCAR-4 ovarian = test system: OVCAR-4 ovarian
OVCAR-5 ovarian = test system: OVCAR-5 ovarian
OVCAR-8 ovarian = test system: OVCAR-8 ovarian
PC-3 prostate = test system: PC-3 prostate
RPMI-8226 leukemia = test system: RPMI-8226 leukemia
RXF 393 renal = test system: RXF 393 renal
SF-268 CNS = test system: SF-268 CNS
SF-295 CNS = test system: SF-295 CNS
SF-539 CNS = test system: SF-539 CNS
SK-MEL-2 melanoma = test system: SK-MEL-2 melanoma
SK-MEL-28 melanoma = test system: SK-MEL-28 melanoma
SK-MEL-5 melanoma = test system: SK-MEL-5 melanoma
SK-OV-3 ovarian = test system: SK-OV-3 ovarian
SN12C renal = test system: SN12C renal
SNB-19 CNS = test system: SNB-19 CNS
SNB-75 CNS = test system: SNB-75 CNS
SW-620 colon = test system: SW-620 colon
T-47D breast = test system: T-47D breast
TK-10 renal = test system: TK-10 renal
U251 CNS = test system: U251 CNS
UACC-257 melanoma = test system: UACC-257 melanoma
UACC-62 melanoma = test system: UACC-62 melanoma
UO-31 renal = test system: UO-31 renal

COc1ccc(/C=N/NC2=NC3C(S2)N(C)C(=O)N3C)cc1 (configuration not stated)
GI50 (786-0 renal): 4.89 µM
TGI (786-0 renal): > 100 µM
GI50 (A498 renal): 5.73 µM
TGI (A498 renal): 87 µM
GI50 (A549 NSCLC): 5.83 µM
TGI (A549 NSCLC): > 100 µM
GI50 (ACHN renal): 5.27 µM
TGI (ACHN renal): > 100 µM
GI50 (BT-549 breast): 2.71 µM
TGI (BT-549 breast): 14.2 µM
GI50 (CAKI-1 renal): 3.76 µM
TGI (CAKI-1 renal): > 100 µM
GI50 (CCRF-CEM leukemia): 3.61 µM
TGI (CCRF-CEM leukemia): > 100 µM
GI50 (COLO 205 colon): 4.25 µM
TGI (COLO 205 colon): 25 µM
GI50 (DU-145 prostate): 9.89 µM
TGI (DU-145 prostate): > 100 µM
GI50 (EKVX NSCLC): 8.03 µM
TGI (EKVX NSCLC): > 100 µM
GI50 (HCC-2998 colon): 6.91 µM
TGI (HCC-2998 colon): 36 µM
GI50 (HCT-116 colon): 4.67 µM
TGI (HCT-116 colon): > 100 µM
GI50 (HCT-15 colon): 3.48 µM
TGI (HCT-15 colon): > 100 µM
GI50 (HL-60(TB) leukemia): 2.51 µM
TGI (HL-60(TB) leukemia): 5.55 µM
GI50 (HOP-62 NSCLC): 4.12 µM
TGI (HOP-62 NSCLC): > 100 µM
GI50 (HOP-92 NSCLC): 9.44 µM
TGI (HOP-92 NSCLC): > 100 µM
GI50 (HS 578T breast): 2.51 µM
TGI (HS 578T breast): 7.53 µM
GI50 (HT29 colon): 2.15 µM
TGI (HT29 colon): 5.1 µM
GI50 (IGROV1 ovarian): 4.72 µM
TGI (IGROV1 ovarian): > 100 µM
GI50 (K-562 leukemia): 3.12 µM
TGI (K-562 leukemia): > 100 µM
GI50 (KM12 colon): 4.73 µM
TGI (KM12 colon): > 100 µM
GI50 (LOX IMVI melanoma): 3.79 µM
TGI (LOX IMVI melanoma): > 100 µM
GI50 (M14 melanoma): 4 µM
TGI (M14 melanoma): 64.1 µM
GI50 (MALME-3M melanoma): 3.7 µM
TGI (MALME-3M melanoma): > 100 µM
GI50 (MDA-MB-231 breast): 6.09 µM
TGI (MDA-MB-231 breast): 45.2 µM
GI50 (MDA-MB-435): 1.6 µM
TGI (MDA-MB-435): 3.92 µM
GI50 (MOLT-4 leukemia): 3.58 µM
TGI (MOLT-4 leukemia): > 100 µM
GI50 (NCI-H226 lung): 4.58 µM
TGI (NCI-H226 lung): > 100 µM
GI50 (NCI-H23 lung): 5.05 µM
TGI (NCI-H23 lung): > 100 µM
GI50 (NCI/ADR-RES ovarian): 3.8 µM
TGI (NCI/ADR-RES ovarian): 27.4 µM
GI50 (OVCAR-3 ovarian): 2.82 µM
TGI (OVCAR-3 ovarian): 7.95 µM
GI50 (OVCAR-4 ovarian): 7.95 µM
TGI (OVCAR-4 ovarian): > 100 µM
GI50 (OVCAR-5 ovarian): 7.96 µM
TGI (OVCAR-5 ovarian): > 100 µM
GI50 (OVCAR-8 ovarian): 7.65 µM
TGI (OVCAR-8 ovarian): > 100 µM
GI50 (PC-3 prostate): 4.76 µM
TGI (PC-3 prostate): > 100 µM
GI50 (RPMI-8226 leukemia): 5 µM
TGI (RPMI-8226 leukemia): > 100 µM
GI50 (RXF 393 renal): 1.99 µM
TGI (RXF 393 renal): 5.05 µM
GI50 (SF-268 CNS): 5.37 µM
TGI (SF-268 CNS): > 100 µM
GI50 (SF-295 CNS): 2.97 µM
TGI (SF-295 CNS): 12.7 µM
GI50 (SF-539 CNS): 3.03 µM
TGI (SF-539 CNS): 12.3 µM
GI50 (SK-MEL-2 melanoma): 1.04 µM
TGI (SK-MEL-2 melanoma): 3.52 µM
GI50 (SK-MEL-28 melanoma): 7.7 µM
TGI (SK-MEL-28 melanoma): > 100 µM
GI50 (SK-MEL-5 melanoma): 2.95 µM
TGI (SK-MEL-5 melanoma): 10.6 µM
GI50 (SK-OV-3 ovarian): 4.27 µM
TGI (SK-OV-3 ovarian): > 100 µM
GI50 (SN12C renal): 4.17 µM
TGI (SN12C renal): > 100 µM
GI50 (SNB-19 CNS): 4.12 µM
TGI (SNB-19 CNS): > 100 µM
GI50 (SNB-75 CNS): 1.75 µM
TGI (SNB-75 CNS): 6.26 µM
GI50 (SW-620 colon): 3.32 µM
TGI (SW-620 colon): > 100 µM
GI50 (T-47D breast): 4.5 µM
TGI (T-47D breast): > 100 µM
TGI (TK-10 renal): 40.9 µM
GI50 (U251 CNS): 3.78 µM
TGI (U251 CNS): > 100 µM
GI50 (UACC-257 melanoma): 5.01 µM
TGI (UACC-257 melanoma): > 100 µM
GI50 (UACC-62 melanoma): 2.97 µM
TGI (UACC-62 melanoma): 37.1 µM
GI50 (UO-31 renal): 3.16 µM
TGI (UO-31 renal): > 100 µM
